Reference: paper PMC11866022, “Long-Chain Cyclic Arylguanidines as Multifunctional Serotonin Receptor Ligands with Antiproliferative Activity” (ACS Omega, 2025)

Columns and labels:
5-HT7 = target: T1, 5-HT7 (Homo sapiens, UniProt P34969); assay: Radioligand binding assay, 5-HT7 ([3H]-5-CT); conditions: Table 3, unit inferred; 0.8 nM [3H]-5-CT
T1 construct: expressed in transfected cells; host or cells: HEK293
Method: (§1) Their functional activity was also evaluated by assessing their ability to inhibit agonist-induced cAMP production in HEK293 cells (Table 3). Extended radioisotope tests were aimed at detecting potential affinity for other aminergic receptors, whose role in cancer treatment may be important. Functions were tested for all receptors. The essence of functional tests results from the fact that serotonin stimulates tumor progression. Therefore, the ligand should have the potential to reduce its concentration, i.e., act as an antagonist.[39]
The detailed procedure is presented in previous publications.[53] Assays were performed by incubating for 1 h at 37 °C (room temperature for 5-HT1A) in 200 μL volumes on 96-well plates. The reaction was terminated by rapid filtration using Unifilter plates, and radioactivity on the filters was measured with a PerkinElmer Microbeta plate reader. Radioligands used were:
Eight concentrations (10^–4 to 10^–11 M) were tested in triplicate for each compound. Inhibition constants (Ki) were calculated using the Cheng–Prusoff equation.[54] The results are expressed as the means of at least two independent experiments.

5-HT1A = target: T2, 5-HT1A (Homo sapiens, UniProt P08908); assay: Functional cAMP assay (LANCE Ultra), 5-HT1A; type: cell-based; conditions: for EC50: agonist mode; for function at 5-HT1A: in words
T2 construct: expressed in transfected cells; host or cells: HEK293
T2 sequence (P08908 1-422): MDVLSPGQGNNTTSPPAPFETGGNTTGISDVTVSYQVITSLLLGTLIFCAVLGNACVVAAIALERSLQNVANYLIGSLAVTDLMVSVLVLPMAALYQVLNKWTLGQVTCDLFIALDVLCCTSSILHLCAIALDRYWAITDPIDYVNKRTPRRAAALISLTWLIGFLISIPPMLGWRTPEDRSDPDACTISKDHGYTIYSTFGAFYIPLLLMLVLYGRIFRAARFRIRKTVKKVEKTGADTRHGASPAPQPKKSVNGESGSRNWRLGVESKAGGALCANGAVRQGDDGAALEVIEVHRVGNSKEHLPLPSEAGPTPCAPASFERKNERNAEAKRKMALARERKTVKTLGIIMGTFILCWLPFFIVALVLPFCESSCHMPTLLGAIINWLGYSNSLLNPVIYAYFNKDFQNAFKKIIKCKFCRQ
Method: as §1
The detailed procedure is presented in previous publications.[53] The functional activity of the compounds was assessed using the LANCE Ultra cAMP detection kit (PerkinElmer). […] For other receptors (5-HT7R, 5-HT1AR, and 5-HT6R), 5-CT was used at 10, 100, and 1000 nM, respectively. Each compound was tested in triplicate across eight concentrations. The inhibitory constant (Kb) for each antagonist was calculated using the Cheng–Prusoff equation.

MCF7 breast cancer cells = assay: Antiproliferative activity (MTS), MCF7; type: cell-based, human; conditions: Homo sapiens, MCF7; MTS assay, 72 h
Method: These cell lines were characterized by different mutation profiles, the main one being the variable status of the p53 protein. In detail, U87MG cells have a wild-type p53 protein, while astrocytoma and the rest of GBM cells harbor mutated p53 protein. Additional assays were performed on MCF7 breast cancer and AsPC-1 pancreatic cancer cells. The wide range of tested lines was aimed at screening the anticancer potential of the tested compounds. The first represents one of the most common and the second one of the most aggressive cancers in the world. Comparing the activity of compounds on GBM cells to other types of cancer may reveal their selectivity and usefulness in targeted therapies. The cytotoxicity of the compounds on normal human astrocytes (NHA) and Feline catus astrocyte (PG-4) was determined. Tests on normal lines serve to verify the potential toxicity of the tested compounds on healthy cells. Due to the targeting of CNS tumors, astrocytes were selected as normal lines.
The detailed procedure is presented in previous publications.[53] […] Cells were cultured in appropriate media, supplemented with FBS, antibiotics, and other supplements, and incubated at 37 °C with 5% CO2. […] Cell viability was assessed using the MTS assay, and the inhibitory concentration (IC50) was calculated using GraphPad Prism 8.0. Each compound was tested in triplicate across multiple experiments.

[1] = Lipophilicity, chromatographic hydrophobicity index on C18 (Valko protocol); type: physicochemical
Method: Lipophilicity and affinity for phospholipids for each investigated molecule were assessed. Additionally, selected compounds with the highest biological activities have been characterized by their affinity plasma proteins. All experiments were performed using protocols developed by Valko.[35] These methods facilitated the calculation of chromatographic hydrophobicity indices (CHI) and plasma protein binding percentages (%PPB) in a biochromatographic experiment, with results compared to the reference. A detailed description of the experiments is provided in the Supporting Information (SI), along with the raw data. […] Although high lipophilicity may limit the medical use of the analyzed compounds since they may tend to accumulate excessively in the human body, it is remarkable that several clinically used drugs also have high lipophilicity. […] (Table 5).
The detailed procedure is presented in previous publications.[53] High-performance liquid chromatography (HPLC) analyses were conducted using the Prominence-1 LC-2030C 3D system (Shimadzu) with a DAD detector, employing three different chromatographic columns with specific stationary phases and mobile phases. The analysis was performed at 30 °C with a flow rate of 1.5 mL/min for IAM and C18 columns, and 0.9 mL/min for the Chiralpak column. Calibration standards for the columns were sourced from various suppliers and dissolved in dimethyl sulfoxide. Detection occurred in the UV range (190–300 nm) with a 5 μL injection volume. Each compound was analyzed in triplicate. Retention times for the tested compounds and calibration standards are provided in the Supporting Information (Tables S1 and S2).

[2] = Metabolic stability in mouse liver microsomes; type: in vitro ADME; conditions: MLMs; for main metabolic pathway / metabolic stability, % of remaining: 120 min
Text: Moving on to the next parameter, which is metabolism, we determined metabolic stability, using mouse liver microsomes (MLMs). […]
Main metabolic pathways are marked in red.

HepG2 hepatoma cells = assay: Hepatotoxicity (MTS), HepG2; type: cell-based, human; conditions: 48 h; for hepatotoxic effect on HepG2: 1–10 μM; for HepG2 cell viability: 50 or 100 μM
Method: As a next step, we decided to investigate the potential toxicity of our lead compounds by assessing their toxic effects on the liver (in vitro), heart, and brain (in vivo). The safety profile was assessed through a hepatotoxicity assay using HepG2 hepatoma cells. (Figures 2E,F, 3E,F).

T1 sequence (P34969 whole entry, species assumed): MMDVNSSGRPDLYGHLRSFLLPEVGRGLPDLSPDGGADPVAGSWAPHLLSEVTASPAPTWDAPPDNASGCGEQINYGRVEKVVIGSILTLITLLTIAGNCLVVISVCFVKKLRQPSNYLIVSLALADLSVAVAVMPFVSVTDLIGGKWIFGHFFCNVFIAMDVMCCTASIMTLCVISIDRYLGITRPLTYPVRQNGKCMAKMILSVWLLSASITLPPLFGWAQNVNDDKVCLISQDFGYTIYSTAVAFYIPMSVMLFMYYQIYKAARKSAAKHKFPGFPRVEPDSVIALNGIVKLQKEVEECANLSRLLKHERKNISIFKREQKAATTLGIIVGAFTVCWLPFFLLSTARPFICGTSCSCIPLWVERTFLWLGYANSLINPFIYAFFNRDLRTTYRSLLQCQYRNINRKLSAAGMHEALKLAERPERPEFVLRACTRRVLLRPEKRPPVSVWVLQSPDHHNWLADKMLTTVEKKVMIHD

Row | Structure (SMILES) | EC50 (5-HT1A; Table 3, unit inferred, cAMP) | function at 5-HT1A (5-HT1A) | IC50 (MCF7 breast cancer cells) | CHI C18 pH 2.6 [1] | CHI C18 pH 7.4 [1] | CHI C18 pH 10.5 [1] | metabolic stability, % of remaining [2] | Ki (5-HT7) | main metabolic pathway [2] | Kb (5-HT1A; Table 3, unit inferred, cAMP, antagonist mode, 5-CT) | number of potential metabolites identified [2] | hepatotoxic effect on HepG2 (HepG2 hepatoma cells) | HepG2 cell viability (HepG2 hepatoma cells) | cytotoxic effect on HepG2 (HepG2 hepatoma cells; 10 μM)
1 | O=S(=O)(c1cccc2ccccc12)N1CCN(CCNC2=Nc3ccccc3CN2)CC1 [PP 6, N-{2-[4-(Naphthalene-1-sulfonyl)piperazin-1-yl]ethyl}-3,4-dihydroquinazolin-2-amine] | 375 nM | agonist | > 25000 nM | 92.9 | 101.5 | 138.2 | 72.76% | 2400 nM | double hydroxylation and double bond reduction |  |  |  |  | 
2 | CC1NC(NCCCCCCNS(=O)(=O)c2cccc3ccccc23)=Nc2ccccc21 (stereo not shown) [PP 10, N-{6-[(4-Methyl-3,4-dihydroquinazolin-2-yl)amino]hexyl}naphthalene-1-sulfonamide] |  | antagonist | > 25000 nM | 89.8 | 99.7 | 120.4 | 66.60% | 189 nM | double hydroxylation and double bond reduction or double hydroxylation and ring opening | 74 nM | 14 | no hepatotoxic effects | statistically significant decrease in cell viability | 
3 | O=S(=O)(NCCCCCCNc1ncc2ccccc2n1)c1cccc2ccccc12 [PP 15, N-{6-[(Quinazolin-2-yl)amino]hexyl}naphthalene-1-sulfonamide] |  |  | > 25000 nM | 99 | 104.4 | 107.2 | 48.07% | 1560 nM | hydroxylation |  |  | no hepatotoxic effects | statistically significant decrease in cell viability | 

More lines, main results first:

Row | EC50 (5-HT1A; Table 3, unit inferred, cAMP) | function at 5-HT1A (5-HT1A) | IC50 (MCF7 breast cancer cells) | CHI C18 pH 2.6 [1] | CHI C18 pH 7.4 [1] | CHI C18 pH 10.5 [1] | metabolic stability, % of remaining [2] | Structure (SMILES) | Ki (5-HT7) | main metabolic pathway [2] | Kb (5-HT1A; Table 3, unit inferred, cAMP, antagonist mode, 5-CT) | number of potential metabolites identified [2] | hepatotoxic effect on HepG2 (HepG2 hepatoma cells) | HepG2 cell viability (HepG2 hepatoma cells) | cytotoxic effect on HepG2 (HepG2 hepatoma cells; 10 μM)
4 | 1540 nM | agonist | 19300 ± 300 nM | 115.8 | 105.7 | 128.8 | 52.60% | CC1NC(NCCCCCCNS(=O)(=O)c2c(Cl)ccc3ccccc23)=Nc2ccccc21 (stereo not shown) [PP 13, 2-Chloro-N-{6-[(4-methyl-3,4-dihydroquinazolin-2-yl)amino]hexyl}naphthalene-1-sulfonamide] | 198 nM | ring opening and triple hydroxylation |  | 11 | no hepatotoxic effects | statistically significant decrease in cell viability | 
5 |  |  | 15700 ± 1600 nM | 84.7 | 103.2 | 127 | 93.13% | O=S1(=O)c2cccc3cccc(c23)N1CCCCCCNC1=Nc2ccccc2CN1 [PP 24, 3-{6-[(3,4-Dihydroquinazolin-2-yl)amino]hexyl}-2λ^6-thia-3-azatricyclo[6.3.1.0^4,^12]dodeca-1(11),4(12),5,7,9-pentaene-2,2-dione] |  | hydroxylation |  |  |  |  | strong cytotoxic effect
